Legend:
Samtor [1] = target: T1, Samtor (Mus musculus, UniProt Q8BXK4); assay: microscale thermophoresis; type: binding
T1 sequence (Q8BXK4 1-403): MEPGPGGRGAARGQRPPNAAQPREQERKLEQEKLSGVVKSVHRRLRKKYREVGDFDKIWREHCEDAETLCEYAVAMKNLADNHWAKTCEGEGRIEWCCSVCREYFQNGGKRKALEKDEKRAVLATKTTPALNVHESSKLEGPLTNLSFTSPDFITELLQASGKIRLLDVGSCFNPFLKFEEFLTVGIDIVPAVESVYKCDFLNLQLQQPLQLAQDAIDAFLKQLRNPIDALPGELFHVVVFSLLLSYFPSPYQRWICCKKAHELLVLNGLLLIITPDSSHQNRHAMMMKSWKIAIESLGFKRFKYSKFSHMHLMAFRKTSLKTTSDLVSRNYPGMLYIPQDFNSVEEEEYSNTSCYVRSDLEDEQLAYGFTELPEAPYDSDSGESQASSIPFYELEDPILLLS

SAMTOR [2] = target: T2, SAMTOR (Homo sapiens, UniProt Q1RMZ1); assay: microscale thermophoresis; type: binding
T2 sequence (Q1RMZ1 1-405): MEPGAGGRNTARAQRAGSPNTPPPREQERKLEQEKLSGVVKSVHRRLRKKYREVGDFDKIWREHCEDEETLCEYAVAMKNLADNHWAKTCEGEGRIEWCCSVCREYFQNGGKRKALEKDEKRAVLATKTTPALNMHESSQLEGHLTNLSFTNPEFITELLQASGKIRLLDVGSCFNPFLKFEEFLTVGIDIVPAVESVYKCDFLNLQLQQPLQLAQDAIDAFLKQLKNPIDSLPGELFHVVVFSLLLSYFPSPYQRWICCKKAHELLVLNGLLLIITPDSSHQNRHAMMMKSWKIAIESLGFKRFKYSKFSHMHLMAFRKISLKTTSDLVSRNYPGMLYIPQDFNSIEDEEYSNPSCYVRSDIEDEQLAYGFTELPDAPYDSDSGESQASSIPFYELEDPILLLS

Kd (Samtor [1]): ~10 µM | Kd (SAMTOR [2]): ~7 µM
SMILES: C[S+](CC[C@H](N)C(=O)[O-])C[C@H]1O[C@@H](n2cnc3c(N)ncnc32)[C@H](O)[C@@H]1O (some centres unmarked) [SAM]
